We go through 1 compound from patent US20080292616A1, “Topical Formulations of Histone Deacetylase Inhibitors and Methods Using the Same” (Government of the United of America, Represented by the …, priority 2005, published 2008).

SMILES strings stand for the structures.

For one data set, the system named is rabbits. As to the kind of experiment: Topical tolerability study in rabbits, three times weekly for 4 weeks (Example 2). The class given is in vivo, rabbit. How it is done: The dose used is again 2.5/mg/kg/d (30 mg/m2/d) FR901228 or vehicle in AC, but is applied topically, 4 hrs. a day, for 4 weeks, three times weekly. The study parameters include weekly clinical pathology and histopathology takes place at days 27 and 41. The compositions are applied to substantially all of the rabbit's back. In the case of a human patient or other diseased subject, the composition can be applied to disease-affected and/or non-affected surface areas.

The conditions of data set [1]: intravenous infusion over 4 hours on days 1 and 5 of a 21-day cycle; cited from earlier work.
Data set [2] has as its system New Zealand white rabbits. In words: Topical toxicity study in rabbits, 4 hours daily application (Example 1). The following applies: 2.5 mg/kg topically for 14 days.
Protocol: A study uses New Zealand white rabbits to determine topical toxicity of the depsipeptide FR901228 when applied topically in either Cetaphil° lotion (CL) or Aquaphor cream (AC).
The dose of depsipeptide is 2.5 mg/kg/day (30 mg/m2/d); controls receive vehicle (Aquaphor or Cetaphil) in place of depsipeptide. A highly intense dosing regimen is employed to study toxicity. The study is designed for application of the respective topical composition to the rabbits for 4 hours daily for 28 days. The four-hour application is accomplished by removing the applied composition approximately four hours after application. Four groups of rabbits (2 rabbits/sex/group) are used with two control and two experimental groups. The control groups receive carrier alone (CL or AC) and the experimental groups receive FR901228 in the respective carriers. The experimental parameters include weekly testing of clinical pathology and plasma drug levels. Histopathology is performed at days 15 and 28.
Setting [3] is: FR901228 in AC, 2.5 mg/kg/d topical, 4 hrs a day, 4 weeks.

Regarding `C/C=C1\NC(=O)[C@H]2CSSCC/C=C/[C@H](CC(=O)N[C@H](C(C)C)C(=O)N2)OC(=O)[C@H](C(C)C)NC1=O` [FR901228, (E)-(1S, 4S, 10S, 21R)-7-[(Z)-ethylidene]-4,21-diisopropyl-2-oxa-12,13-dithia-5,8,20,23-tetraazabicyclo [8,7,6]-tricos-16-ene-3,6,19,22-pentanone], in the data set with rabbits (setting [3]), the Draize scoring entry was “slight to well-defined” and the “onset of red skin at the application site” value stood at 9 days. Further, the “pathology: microscopic lesions at the application site” value in the data set with rabbits (day 27, FR901228 in AC) is given as “ulcers of minimal severity”. For the same compound, in the data set with rabbits (days 4, 11, and 27, FR901228 in AC), the “increased FBN” value is 1.6-2 ×. Besides, the maximum tolerated dose in data set [1] is listed as 17.8 mg/m2. In addition, the “skin toxicity at the application site (conclusion)” value in data set [2] is “significant skin toxicity at the application site”.
